Assay results: patent US20090111798A1, “5,6-DIHYDRO-1H-PYRIDIN-2-ONE COMPOUNDS” (priority 2006, published 2009)
Where a name gives a salt, the structure may show the parent alone.

Target: NS5B polymerase (Hepatitis C virus genotype 1b, UniProt P26663)
Experiment: biochemical
Details: NS5B polymerase inhibition; 20 nM enzyme, 75 min at 28° C.
Description: Compounds were tested for HCV polymerase inhibition. Assays were performed in a 96-well streptavidin-coated FlashPlate using 20 nM enzyme, 0.5μ Ci of [α-^33P]GTP, 0.6 μM GTP, and 250 nM 5′biotinylated oligo (rG13)/poly rC in 20 mM Tris-HCl, pH 7.5, 5 mM MgCl2, 5 mM dithiothreitol, 0.1 g/L bovine serum albumin, and 100 U/mL RNAse inhibitor. The reaction was stopped by aspiration after 75 min at 28° C. and the plate was washed several times. After washing and drying the plate, incorporated radioactivity was counted using a Microbeta scintillation counter. IC50 values were calculated relative to the uninhibited control and inhibition data were fitted to a 4-parameter IC50 equation.

Sequence of NS5B polymerase (P26663 2420-3010): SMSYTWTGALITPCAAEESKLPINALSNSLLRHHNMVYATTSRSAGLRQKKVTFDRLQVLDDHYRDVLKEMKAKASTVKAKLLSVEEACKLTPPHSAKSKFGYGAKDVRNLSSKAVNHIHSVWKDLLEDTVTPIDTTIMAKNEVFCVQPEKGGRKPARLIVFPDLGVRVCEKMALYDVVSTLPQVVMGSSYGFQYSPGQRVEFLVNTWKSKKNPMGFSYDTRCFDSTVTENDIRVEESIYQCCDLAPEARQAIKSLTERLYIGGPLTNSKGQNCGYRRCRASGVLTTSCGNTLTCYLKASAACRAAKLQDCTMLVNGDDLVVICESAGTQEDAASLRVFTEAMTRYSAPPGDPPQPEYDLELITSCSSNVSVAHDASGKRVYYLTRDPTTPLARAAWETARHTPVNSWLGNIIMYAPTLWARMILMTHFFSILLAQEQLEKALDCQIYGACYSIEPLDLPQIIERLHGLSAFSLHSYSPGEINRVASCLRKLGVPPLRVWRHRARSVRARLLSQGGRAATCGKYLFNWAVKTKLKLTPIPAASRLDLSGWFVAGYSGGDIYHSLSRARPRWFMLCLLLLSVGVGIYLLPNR

| SMILES | IC50 [nM] |
| --- | --- |
| O=C1C(C2=NS(=O)(=O)c3cc(C4CCCS4(=O)=O)ccc3N2)=C(O)[C@@H]2CCC[C@@H]2N1Cc1ccc(F)cc1 (mixture of isomers) [Example 45, (4aR,7aS)-3-[7-(1,1-Dioxo-tetrahydro-1λ^6-thiophen-2-yl)-1,1-dioxo-1,4-dihydro-1λ^6-benzo[1,2,4]thiadiazin-3-yl]-1-(4-fluoro-benzyl)-4-hydroxy-1,4a,5,6,7,7a-hexahydro-[1]pyrindin-2-one] | 20 to 100 |
| O=C1C(C2=NS(=O)(=O)c3ccccc3N2)=C(O)C2CCCC2N1Cc1ccc(F)cc1 (mixture of isomers) [Example 51] | 100 to 1000 |
| CS(=O)(=O)Nc1ccc2c(c1)S(=O)(=O)N=C(C1=C(O)C3CCCCCC3N(CCC3CC3)C1=O)N2 (mixture of isomers) [Example 58, N-{3-[1-(2-Cyclopropyl-ethyl)-4-hydroxy-2-oxo-2,4a,5,6,7,8,9,9a-octahydro-1H-cyclohepta[b]pyridin-3-yl]-1,1-dioxo-1,4-dihydro-1λ^6-benzo[1,2,4]thiadiazin-7-yl}-methanesulfonamide] | 20 to 100 |
| CS(=O)(=O)Nc1ccc2c(c1)S(=O)(=O)N=C(C1=C(O)[C@@H]3CCC[C@@H]3N(Cc3ccc(F)cc3)C1=O)N2 (relative stereo) [Example 1, cis-N-{3-[1-(4-Fluoro-benzyl)-4-hydroxy-2-oxo-2,4-a,5,6,7,7a-hexahydro-1H-[1]pyrindin-3-yl]-1,1-dioxo-1,4-dihydro-1λ^6-benzo[1,2,4]thiadiazin-7-yl}-methanesulfonamide] | < 20 |
| CS(=O)(=O)Nc1ccc2c(c1)S(=O)(=O)N=C(C1=C(O)[C@@H]3CCC[C@@H]3N(Cc3ccccn3)C1=O)N2 (relative stereo) [Example 4, cis-N-[3-(4-Hydroxy-2-oxo-1-pyridin-2-ylmethyl-2,4-a,5,6,7,7a-hexahydro-1H-[1]pyrindin-3-yl)-1,1-dioxo-1,4-dihydro-1λ^6-benzo[1,2,4]thiadiazin-7-yl]-methanesulfonamide] | 100 to 1000 |
| CS(=O)(=O)Nc1ccc2c(c1)S(=O)(=O)N=C(C1=C(O)[C@@H]3CCC[C@@H]3N(Cc3ccc(F)cn3)C1=O)N2 (relative stereo) [Example 5, cis-N-{3-[1-(5-Fluoro-pyridin-2-ylmethyl)-4-hydroxy-2-oxo-2,4-a,5,6,7,7a-hexahydro-1H-[1]pyrindin-3-yl]-1,1-dioxo-1,4-dihydro-1λ^6-benzo[1,2,4]thiadiazin-7-yl}-methanesulfonamide] | 100 to 1000 |
| CN(C)CCN1C(=O)C(C2=NS(=O)(=O)c3cc(NS(C)(=O)=O)ccc3N2)=C(O)[C@@H]2CCC[C@@H]21 (relative stereo) [Example 6] | 1000 to 100000 |
| CS(=O)(=O)Nc1ccc2c(c1)S(=O)(=O)N=C(C1=C(O)[C@@H]3CCC[C@@H]3N(Cc3ccccc3)C1=O)N2 (relative stereo) [Example 7, cis-N-[3-(1-Benzyl-4-hydroxy-2-oxo-2,4-a,5,6,7,7a-hexahydro-1H-[1]pyrindin-3-yl)-1,1-dioxo-1,4-dihydro-1λ^6-benzo[1,2,4]thiadiazin-7-yl]-methanesulfonamide] | 20 to 100 |
| CS(=O)(=O)Nc1ccc2c(c1)S(=O)(=O)N=C(C1=C(O)[C@@H]3CCC[C@@H]3N(Cc3cccc(F)c3)C1=O)N2 (relative stereo) [Example 8] | < 20 |
| CS(=O)(=O)Nc1ccc2c(c1)S(=O)(=O)N=C(C1=C(O)[C@@H]3CCC[C@@H]3N(CCc3ccccc3)C1=O)N2 (relative stereo) [Example 9, cis-N-[3-(4-Hydroxy-2-oxo-1-phenethyl-2,4-a,5,6,7,7a-hexahydro-1H-[1]pyrindin-3-yl)-1,1-dioxo-1,4-dihydro-1λ^6-benzo[1,2,4]thiadiazin-7-yl]-methanesulfonamide] | 100 to 1000 |
| CS(=O)(=O)Nc1ccc2c(c1)S(=O)(=O)N=C(C1=C(O)[C@@H]3CCC[C@@H]3N(C3CCCC3)C1=O)N2 (relative stereo) [Example 10, cis-N-[3-(1-Cyclopentyl-4-hydroxy-2-oxo-2,4-a,5,6,7,7a-hexahydro-1H-[1]pyrindin-3-yl)-1,1-dioxo-1,4-dihydro-1λ^6-benzo[1,2,4]thiadiazin-7-yl]-methanesulfonamide] | 1000 to 100000 |
| CC(C)CCN1C(=O)C(C2=NS(=O)(=O)c3cc(NS(C)(=O)=O)ccc3N2)=C(O)[C@H]2CCC[C@H]21 (relative stereo) [Example 17, cis-N-{3-[2-(3-Methylbutyl)-5-hydroxy-3-oxo-2-aza-bicyclo[4.3.0]non-4-en-4-yl]-1,1-dioxo-1,4-dihydro-1λ^6-benzo[1,2,4]thiadiazin-7-yl}-methanesulfonamide] | < 20 |
| CC(C)(C)CCN1C(=O)C(C2=NS(=O)(=O)c3cc(NS(C)(=O)=O)ccc3N2)=C(O)[C@H]2CCC[C@H]21 (relative stereo) [Example 18, cis-N-{3-[2-(3,3-Dimethylbutyl)-5-hydroxy-3-oxo-2-aza-bicyclo[4.3.0]non-4-en-4-yl]-1,1-dioxo-1,4-dihydro-1λ^6-benzo[1,2,4]thiadiazin-7-yl}-methanesulfonamide] | < 20 |
| CS(=O)(=O)Nc1ccc2c(c1)S(=O)(=O)N=C(C1=C(O)[C@@H]3CCC[C@@H]3N(CCC3CC3)C1=O)N2 (relative stereo) [Example 19, cis-N-{3-[2-Cyclopropylethyl-5-hydroxy-3-oxo-2-aza-bicyclo[4.3.0]non-4-en-4-yl]-1,1-dioxo-1,4-dihydro-1λ^6-benzo[1,2,4]thiadiazin-7-yl}-methanesulfonamide] | 20 to 100 |
| NCCS(=O)(=O)Nc1ccc2c(c1)S(=O)(=O)N=C(C1=C(O)[C@@H]3CCC[C@@H]3N(Cc3ccc(F)cc3)C1=O)N2 (relative stereo) [Example 24, cis-2-Amino-ethanesulfonic acid {3-[1-(4-fluoro-benzyl)-4-hydroxy-2-oxo-2,4-a,5,6,7,7a-hexahydro-1H-[1]pyrindin-3-yl]-1,1-dioxo-1,4-dihydro-1λ^6 benzo[1,2,4]thiadiazin-7-yl}-amide] | 20 to 100 |
| CS(=O)(=O)Nc1ccc2c(c1)S(=O)(=O)C=C(C1=C(O)[C@@H]3CCC[C@@H]3N(Cc3ccc(F)cc3)C1=O)N2 (relative stereo) [Example 25, cis-N-{3-[1-(4-Fluoro-benzyl)-4-hydroxy-2-oxo-2,4-a,5,6,7,7a-hexahydro-1H-[1]pyrindin-3-yl]-1,1-dioxo-1,4-dihydro-1λ^6-benzo[1,4]thiazin-7-yl}-methanesulfonamide] | 20 to 100 |
| CS(=O)(=O)Nc1ccc2c(c1)S(=O)(=O)N=C(C1=C(O)[C@@H]3CC=CC[C@@H]3N(Cc3ccc(F)cc3)C1=O)N2 (relative stereo) [Example 37, cis-N-{3-[1-(4-Fluoro-benzyl)-4-hydroxy-2-oxo-1,2,4a,5,8,8a-hexahydro-quinolin-3-yl]-1,1-dioxo-1,4-dihydro-1λ^6 benzo[1,2,4]thiadiazin-7-yl}-methanesulfonamide] | 20 to 100 |
| CN(C)N1C(=O)C(C2=NS(=O)(=O)c3cc(NS(C)(=O)=O)ccc3N2)=C(O)[C@@H]2CCC[C@@H]21 (relative stereo) [Example 38, cis-N-[3-(1-Dimethylamino-4-hydroxy-2-oxo-2,4-a,5,6,7,7a-hexahydro-1H-[1]pyrindin-3-yl)-1,1-dioxo-1,4-dihydro-1λ^6-benzo[1,2,4]thiadiazin-7-yl]-methanesulfonamide hydrochloride] | 1000 to 100000 |
| CS(=O)(=O)Nc1ccc2c(c1)S(=O)(=O)N=C(C1=C(O)[C@@H]3CCC[C@@H]3N(NC3CCC3)C1=O)N2 (relative stereo) [Example 41, cis-N-[3-(1-Cyclobutylamino-4-hydroxy-2-oxo-2,4-a,5,6,7,7a-hexahydro-1H-[1]pyrindin-3-yl)-1,1-dioxo-1,4-dihydro-1λ^6-benzo[1,2,4]thiadiazin-7-yl]-methanesulfonamide trifluoroacetic acid salt] | 20 to 100 |
| CS(=O)(=O)Nc1ccc2c(c1)S(=O)(=O)N=C(C1=C(O)[C@@H]3CCC[C@@H]3N(C3CCCCC3)C1=O)N2 (relative stereo) [Example 43, cis-N-[3-(1-Cyclohexyl-4-hydroxy-2-oxo-2,4-a,5,6,7,7a-hexahydro-1H-[1]pyrindin-3-yl)-1,1-dioxo-1,4-dihydro-1λ^6-benzo[1,2,4]thiadiazin-7-yl]-methanesulfonamide] | 100 to 1000 |
| CS(=O)(=O)Nc1ccc2c(c1)S(=O)(=O)N=C(C1=C(O)[C@@H]3CCC[C@@H]3N(CC3CCC3)C1=O)N2 (relative stereo) [Example 47, cis-N-[3-(1-Cyclobutylmethyl-4-hydroxy-2-oxo-2,4-a,5,6,7,7a-hexahydro-1H-[1]pyrindin-3-yl)-1,1-dioxo-1,4-dihydro-1λ^6-benzo[1,2,4]thiadiazin-7-yl]-methanesulfonamide] | 20 to 100 |
| CS(=O)(=O)Nc1ccc2c(c1)S(=O)(=O)N=C(C1=C(O)[C@@H]3CCC[C@@H]3N(c3ccccc3)C1=O)N2 (relative stereo) [Example 48, cis-N-[3-(4-Hydroxy-2-oxo-1-phenyl-2,4-a,5,6,7,7a-hexahydro-1H-[1]pyrindin-3-yl)-1,1-dioxo-1,4-dihydro-1λ^6-benzo[1,2,4]thiadiazin-7-yl]-methanesulfonamide] | 1000 to 100000 |
| CN1C(=O)C(C2=NS(=O)(=O)c3cc(NS(C)(=O)=O)ccc3N2)=C(O)[C@@H]2CCC[C@@H]21 (relative stereo) [Example 53, cis-N-[3-(4-Hydroxy-1-methyl-2-oxo-2,4a,5,6,7,7a-hexahydro-1H-[1]pyrindin-3-yl)-1,1-dioxo-1,4-dihydro-1λ^6-benzo[1,2,4]thiadiazin-7-yl]-methanesulfonamide] | 1000 to 100000 |
| CCN1C(=O)C(C2=NS(=O)(=O)c3cc(NS(C)(=O)=O)ccc3N2)=C(O)[C@@H]2CCC[C@@H]21 (relative stereo) [Example 54, cis-N-[3-(1-Ethyl-4-hydroxy-2-oxo-2,4a,5,6,7,7a-hexahydro-1H-[1]pyrindin-3-yl)-1,1-dioxo-1,4-dihydro-1λ^6-benzo[1,2,4]thiadiazin-7-yl]-methanesulfonamide] | 100 to 1000 |
